Test results taken from the supplement of paper PMC10307832.

What was measured:
Assay in all cases: relative viability (nuclei count vs DMSO), 5 days (fraction); higher = more cells survive
LCLC-97TM1 = tested on: LCLC-97TM1
Procedure, shortened: (§1)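 Relative viability is defined as nuclei in treated wells over nuclei in vehicle wells. Duplicate plates were run and medians reported. Lung cancer cell lines in 1536-well plates were dosed by pin tool one day after seeding, with one drug or with a fixed anchor-drug dose plus five library-drug doses (not always all listed) in √10 steps, and nuclei were counted after 5 days.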

NCI-H650 = tested on: NCI-H650
Procedure, shortened: as §1

H3255 = tested on: H3255
Procedure, shortened: as §1

NCI-H520 = tested on: NCI-H520
Procedure, shortened: as §1

BEN = tested on: BEN
Procedure, shortened: as §1

NCI-H441 = tested on: NCI-H441
Procedure, shortened: as §1

NCI-H2023 = tested on: NCI-H2023
Procedure, shortened: as §1

NCI-H596 = tested on: NCI-H596
Procedure, shortened: as §1

NCI-H460 = tested on: NCI-H460
Procedure, shortened: as §1

NCI-H1944 = tested on: NCI-H1944
Procedure, shortened: as §1

PC-3 [JPC-3] = tested on: PC-3 [JPC-3]
Procedure, shortened: as §1

NCI-H661 = tested on: NCI-H661
Procedure, shortened: as §1

NCI-H727 = tested on: NCI-H727
Procedure, shortened: as §1

NCI-H1651 = tested on: NCI-H1651
Procedure, shortened: as §1

201T = tested on: 201T
Procedure, shortened: as §1

A-427 = tested on: A-427
Procedure, shortened: as §1

NCI-H2087 = tested on: NCI-H2087
Procedure, shortened: as §1

CAL-12T = tested on: CAL-12T
Procedure, shortened: as §1

NCI-H1915 = tested on: NCI-H1915
Procedure, shortened: as §1

ABC-1 = tested on: ABC-1
Procedure, shortened: as §1

LC-2-ad = tested on: LC-2-ad
Procedure, shortened: as §1

O=c1cc(N2CCOCC2)oc2c(-c3cccc4c3sc3ccccc34)cccc12 + Cc1nc(NC(=O)N2CCC[C@H]2C(N)=O)sc1-c1ccnc(C(C)(C)C(F)(F)F)c1 [Alpelisib] (partner 2 µM)
relative viability (LCLC-97TM1; first compound 0.01 µM): 0.287
relative viability (LCLC-97TM1; first compound 0.03162 µM): 0.269
relative viability (LCLC-97TM1; first compound 0.3162 µM): 0.201
relative viability (LCLC-97TM1; first compound 1 µM): 0.244
relative viability (NCI-H650; first compound 0.01 µM): 1.06
relative viability (NCI-H650; first compound 0.03162 µM): 1.15
relative viability (NCI-H650; first compound 0.3162 µM): 1.21
relative viability (NCI-H650; first compound 1 µM): 1.09
relative viability (H3255; first compound 0.01 µM): 0.681
relative viability (H3255; first compound 0.03162 µM): 0.698
relative viability (H3255; first compound 0.1 µM): 0.784
relative viability (H3255; first compound 0.3162 µM): 0.685
relative viability (H3255; first compound 1 µM): 0.768
relative viability (NCI-H520; first compound 0.01 µM): 0.997
relative viability (NCI-H520; first compound 0.03162 µM): 1.09
relative viability (NCI-H520; first compound 0.1 µM): 0.915
relative viability (NCI-H520; first compound 0.3162 µM): 0.841
relative viability (NCI-H520; first compound 1 µM): 0.996
relative viability (BEN; first compound 0.01 µM): 0.946
relative viability (BEN; first compound 0.03162 µM): 1.16
relative viability (BEN; first compound 0.1 µM): 0.951
relative viability (BEN; first compound 0.3162 µM): 0.951
relative viability (BEN; first compound 1 µM): 1.05
relative viability (NCI-H441; first compound 0.01 µM): 0.832
relative viability (NCI-H441; first compound 0.03162 µM): 0.658
relative viability (NCI-H441; first compound 0.1 µM): 0.792
relative viability (NCI-H441; first compound 0.3162 µM): 0.842
relative viability (NCI-H441; first compound 1 µM): 0.7
relative viability (NCI-H2023; first compound 0.01 µM): 0.653
relative viability (NCI-H2023; first compound 0.03162 µM): 0.621
relative viability (NCI-H2023; first compound 0.1 µM): 0.618
relative viability (NCI-H2023; first compound 0.3162 µM): 0.532
relative viability (NCI-H2023; first compound 1 µM): 0.487
relative viability (NCI-H596; first compound 0.01 µM): 0.469
relative viability (NCI-H596; first compound 0.03162 µM): 0.506
relative viability (NCI-H596; first compound 0.1 µM): 0.451
relative viability (NCI-H596; first compound 0.3162 µM): 0.474
relative viability (NCI-H596; first compound 1 µM): 0.522
relative viability (NCI-H460; first compound 0.01 µM): 0.509
relative viability (NCI-H460; first compound 0.03162 µM): 0.502
relative viability (NCI-H460; first compound 0.1 µM): 0.495
relative viability (NCI-H460; first compound 0.3162 µM): 0.373
relative viability (NCI-H460; first compound 1 µM): 0.538
relative viability (NCI-H1944; first compound 0.01 µM): 0.814
relative viability (NCI-H1944; first compound 0.03162 µM): 0.833
relative viability (NCI-H1944; first compound 0.1 µM): 0.82
relative viability (NCI-H1944; first compound 0.3162 µM): 0.847
relative viability (NCI-H1944; first compound 1 µM): 0.801
relative viability (PC-3 [JPC-3]; first compound 0.01 µM): 1.01
relative viability (PC-3 [JPC-3]; first compound 0.03162 µM): 1.05
relative viability (PC-3 [JPC-3]; first compound 0.1 µM): 1.02
relative viability (PC-3 [JPC-3]; first compound 0.3162 µM): 1.02
relative viability (PC-3 [JPC-3]; first compound 1 µM): 1.04
relative viability (NCI-H661; first compound 0.01 µM): 0.556
relative viability (NCI-H661; first compound 0.03162 µM): 0.243
relative viability (NCI-H661; first compound 0.1 µM): 0.591
relative viability (NCI-H661; first compound 0.3162 µM): 0.606
relative viability (NCI-H661; first compound 1 µM): 0.506
relative viability (NCI-H727; first compound 0.01 µM): 0.481
relative viability (NCI-H727; first compound 0.03162 µM): 0.591
relative viability (NCI-H727; first compound 0.1 µM): 0.493
relative viability (NCI-H727; first compound 0.3162 µM): 0.538
relative viability (NCI-H727; first compound 1 µM): 0.541
relative viability (NCI-H1651; first compound 0.01 µM): 0.924
relative viability (NCI-H1651; first compound 0.03162 µM): 0.952
relative viability (NCI-H1651; first compound 0.1 µM): 1.04
relative viability (NCI-H1651; first compound 0.3162 µM): 0.968
relative viability (NCI-H1651; first compound 1 µM): 1.01
relative viability (201T; first compound 0.01 µM): 1
relative viability (201T; first compound 0.03162 µM): 0.994
relative viability (201T; first compound 0.1 µM): 1.07
relative viability (201T; first compound 0.3162 µM): 0.979
relative viability (201T; first compound 1 µM): 0.879
relative viability (A-427; first compound 0.01 µM): 1.11
relative viability (A-427; first compound 0.03162 µM): 1.12
relative viability (A-427; first compound 0.1 µM): 1.03
relative viability (A-427; first compound 0.3162 µM): 1.04
relative viability (A-427; first compound 1 µM): 1.09
relative viability (NCI-H2087; first compound 0.01 µM): 1.12
relative viability (NCI-H2087; first compound 0.03162 µM): 1.02
relative viability (NCI-H2087; first compound 0.1 µM): 1.13
relative viability (NCI-H2087; first compound 0.3162 µM): 1.23
relative viability (NCI-H2087; first compound 1 µM): 1.16
relative viability (CAL-12T; first compound 0.01 µM): 1.29
relative viability (CAL-12T; first compound 0.03162 µM): 1.1
relative viability (CAL-12T; first compound 0.1 µM): 1.13
relative viability (CAL-12T; first compound 0.3162 µM): 1.27
relative viability (CAL-12T; first compound 1 µM): 1.1
relative viability (NCI-H1915; first compound 0.01 µM): 1.08
relative viability (NCI-H1915; first compound 0.03162 µM): 1.04
relative viability (NCI-H1915; first compound 0.1 µM): 1.07
relative viability (NCI-H1915; first compound 0.3162 µM): 1.04
relative viability (NCI-H1915; first compound 1 µM): 1.06
relative viability (ABC-1; first compound 0.01 µM): 1.11
relative viability (ABC-1; first compound 0.03162 µM): 0.939
relative viability (ABC-1; first compound 0.1 µM): 1.01
relative viability (ABC-1; first compound 0.3162 µM): 0.883
relative viability (ABC-1; first compound 1 µM): 0.857
relative viability (LC-2-ad; first compound 0.01 µM): 0.91
relative viability (LC-2-ad; first compound 0.1 µM): 0.976
relative viability (LC-2-ad; first compound 0.3162 µM): 0.839
relative viability (LC-2-ad; first compound 1 µM): 0.906
